Laboratory results as given in US20160128982A1, “ANTIMICROBIAL COMPOSITIONS AND METHODS OF USE” (DERMCARE-VET PTY LTD, priority 2013, published 2016).

Experiments:
[1] = tested on: Staphylococcus pseudintermedius; experiment: Well diffusion, zone of inhibition on Mueller-Hinton agar; format: cell-based; details: 37° C. 18 to 24 hours; for Zone of Inhibition: 50 μL per well
Experimental: (§1) 1. To determine whether propylene glycol was a suitable solvent to solubilize miconazole. A Mueller-Hinton agar (MH) plate containing a well was inoculated with Staphylococcus pseudintermedius and a Sabouraud dextrose agar (SAB) plate containing a 6 mm well was inoculated with Malassezia pachydermatis. The wells were filled with 50 μL propylene glycol and the MH plate were incubated at 37° C. for 18 to 24 hours and the SAB plate was incubated at 30 to 35° C. for 72 hours. The plates were then observed for any inhibition of microbial growth around the well.
(§2) 2. To determine suitable concentrations of miconazole and PHMB, MH agar plates containing wells were inoculated with S. pseudintermedius and SAB plates containing wells were inoculated with M. pachydermatis. The wells were filled with 50 μL of varying concentrations of miconazole or PHMB. The MH plates were incubated at 37° C. for 18 to 24 hours and the SAB plates were incubated at 30 to 35° C. for 48 hours.
(§3) After incubation, the diameter of the zone of inhibition around the well was measured.

Malassezia pachydermatis = experiment: Well diffusion, zone of inhibition on Sabouraud dextrose agar; format: cell-based
Experimental: as §1, §2, §3

Candida albicans = experiment: Agar dilution MIC and FICI (Example 2); format: cell-based; details: miconazole alone
Experimental: (§4) The MIC of PHMB, miconazole and mixtures of PHMB and miconazole were determined by adding varying concentrations of each component or their combination to molten Mueller-Hinton agar and SAB agar. The miconazole was initially dissolved in propylene glycol but dilutions were prepared by diluting this solution with water.
(§5) The concentrations of miconazole, PHMB or combination of PHMB and miconazole tested included:
(§6) A drop of microbial suspension containing one of: • a) Staphylococcus pseudintermedius and • b) Candida albicans
(§7) was added to a MH agar plate and SAB plate respectively of each concentration of each concentration of miconazole, PHMB and combinations thereof and the MH plates were incubated for 24 to 48 hours at 37° C. and the SAB plates were incubated at 20 to 35° C. for 48 hours. Two isolates of Staphylococcus pseudintermedins of different origin were used.
(§8) After incubation the plates were examined to determine the lowest concentration that inhibited growth of the microbe.
(§9) The concentrations were used to calculate the Fractional Inhibitory Concentration Index (FICI) which is a measure of synergism between the components in the combination. The FICI is calculated using the following equations:
(§10) FICMICONAZOLE=MICMICONAZOLE+PHMB/MICMICONAZOLE
(§11) FICPHMB=MICPHMB+MICONAZOLE/MICPHMB
(§12) FICI=FICMICONAZOLE+FICPHMB
(§13) FICI≦0.5 Indicates synergy between components
(§14) FICI>0.5-4.0 indicates no interaction between components
(§15) FICI>4.0 indicates antagonism between components

[2] = tested on: Staphylococcus pseudintermedius; experiment: Agar dilution MIC and FICI (Example 2); format: cell-based
Experimental: as §4, §5, §6, §7, §8, §9, §10, §11, §12, §13, §14, §15

[3] = tested on: S. pseudintermedius isolates; experiment: Agar dilution MIC and FICI, isolates from dogs (Example 3); format: cell-based, Staphylococcus pseudintermedius; details: miconazole alone
Experimental: (§16) The miconazole was initially dissolved in propylene glycol but dilutions were prepared by diluting this solution with water. […] Two isolates of Staphylococcus pseudintermedins of different origin were used. After incubation the plates were examined to determine the lowest concentration that inhibited growth of the microbe. The concentrations were used to calculate the Fractional Inhibitory Concentration Index (FICI) which is a measure of synergism between the components in the combination. The FICI is calculated using the following equations: […]≦0.5 Indicates synergy between components FICI>0.5-4.0 indicates no interaction between components FICI>4.0 indicates antagonism between components The procedure from Example 2 was repeated with different bacterial and fungal isolates obtained from dogs with bacterial or fungal infections. Eight S. pseudintermedius isolates obtained from eight different dogs and three M. pachydermatis isolates from three different dogs were analysed.

[4] = tested on: M. pachydermatis isolates; experiment: as above; format: cell-based, Malassezia pachydermatis; details: miconazole alone
Experimental: as §16

Row | MIC Micon % (Candida albicans) | MIC Micon % ([2]; miconazole alone, two isolates of different origin) | MIC miconazole ([3]; isolate 1) | MIC miconazole ([3]; isolate 2) | MIC miconazole ([3]; isolate 3) | MIC miconazole ([3]; isolate 4) | MIC miconazole ([3]; isolate 5) | MIC miconazole ([3]; isolate 6) | MIC miconazole ([3]; isolate 7) | MIC miconazole ([3]; isolate 8) | MIC miconazole ([4]; isolate 1) | MIC miconazole ([4]; isolate 2) | MIC miconazole ([4]; isolate 3) | SMILES | Zone of Inhibition ([1]; Miconazole concentration 0.0009%) | Zone of Inhibition ([1]; Miconazole concentration 0.0019%) | Zone of Inhibition ([1]; Miconazole concentration 0.0039%) | Zone of Inhibition (Malassezia pachydermatis; Miconazole concentration 0.0009%, 50 μL per well, 30 to 35° C. 48 hours) | concentration at which an antimicrobial effect begins ([2]; used alone) | inhibition of microbial growth around the well ([1]; 50 μL propylene glycol per well) | inhibition of microbial growth around the well (Malassezia pachydermatis; 50 μL propylene glycol in 6 mm well, 30 to 35° C. 72 hours)
1 | 0.00095% | 0.00012% | 0.00012% | 0.00012% | 0.00012% | 0.00012% | 0.00012% | 0.00012% | 0.00012% | 0.00012% | 0.00003% | 0.00006% | 0.000015% | Clc1ccc(COC(Cn2ccnc2)c2ccc(Cl)cc2Cl)c(Cl)c1 (centres unmarked) [miconazole] | 14-17 mm | 14-16 mm | 17-18 mm | 25 mm | about 0.00012 wt % | – | –
2 | – | – | – | – | – | – | – | – | – | – | – | – | – | CC(O)CO (centres unmarked) [propylene glycol] | – | – | – | – | – | No zone of inhibition | No zone of inhibition
